Bounds are passed on as bounds.

This assay has as its system Puccinia recondita. In words: Test on the preventive effect against wheat leaf rust. The format is in vivo. The following applies: 216 h, test solution A 500 ppm, 5 ml per pot, wheat 1.3-leaf stage, 1 day inoculation chamber then 8 days at 20° C. The procedure:
Compounds of the present invention were dissolved in a solvent for emulsion (a mixture of Sorpol (registered trademark) 3005XL (manufactured by Toho Chemical Industry Co., Ltd.): N-methylpyrrolidone: Solvesso (registered trademark) 200 (manufactured by ExxonMobil Chemical) in a ratio of 1:5:2) to prepare 20 wt % emulsifiable concentrates. Then, distilled water was added to dilute the emulsifiable concentrates to the prescribed concentration (500 ppm), and the obtained solutions were used in the following the Test Examples 1 to 8. Wheat (varieties: Norin 61) was seeded in 90 cm^3 plastic pot, and at 1.3-leaf stage, 5 ml per pot of test solution A of the compounds of the present invention was applied. One day after treatment, a suspension of spores of Puccinia recondita was sprayed to the wheat, and the pot was left in the inoculation chamber at 20° C. under humidity of 100% RH for 1 day. Thereafter, the pot was placed in an air-conditioned greenhouse (20° C.) for 8 days. The proportion of the formed lesion in the inoculated leaves were counted to calculate the control value in accordance with the same formula as in the Test Example 1. The test was carried out in duplicate.
In turn, `COC(c1ncc(C#CC2CC2)cc1Cl)C(C)NC(=O)c1ccccc1C(F)(F)F` (stereo not drawn) [1-024] registered a pest or weed control at 500 µg/mL of no less than 70%.

Compound `COC(c1ncc(C#CC(C)(C)C)cc1Cl)C(C)NC(=O)c1ccccc1C(F)(F)F` (stereo not drawn) [1-025] gave a pest or weed control at 500 µg/mL of no less than 70%.

Compound `CC(NC(=O)c1ccccc1C(F)(F)F)C(OCc1ccccc1)c1ncc(C#CC2CC2)cc1Cl` (stereo not drawn) [1-031, N-[2-benzyloxy-2-[3-chloro-5-(cyclopropylethynyl)pyridin-2-yl]-1-methylethyl]-2-(trifluoromethyl)benzamide] came in with a pest or weed control at 500 µg/mL of no less than 70%.

As for `O=C(NCCc1ncc(C#CC2CC2)cc1Cl)c1cccnc1C(F)F` [3-001, N-[2-[3-chloro-5-(cyclopropylethynyl)pyridin-2-yl]ethyl]-2-(difluoromethyl)nicotinamide], the pest or weed control at 500 µg/mL was no less than 70%.

Regarding `CC(C)(C)C#Cc1cnc(CCNC(=O)c2cccnc2C(F)F)c(Cl)c1` [3-002], the pest or weed control at 500 µg/mL was no less than 70%.

`O=C(NCC(F)(F)c1ncc(C#CC2CC2)cc1Cl)c1cccnc1C(F)F` [3-003, N-[2-[3-chloro-5-(cyclopropylethynyl)pyridin-2-yl]-2,2-difluoroethyl]-2-(difluoromethyl)nicotinamide] displayed a pest or weed control at 500 µg/mL of no less than 70%.

As for `O=C(NCC(c1ncc(C#CC2CC2)cc1Cl)C1CC1)c1cccnc1C(F)F` (stereo not drawn) [3-008], the pest or weed control at 500 µg/mL is no less than 70%.

`CSC(CNC(=O)c1cccnc1C(F)F)c1ncc(C#CC2CC2)cc1Cl` (stereo not drawn) [3-020] displayed a pest or weed control at 500 µg/mL of no less than 70%.

Regarding `COC(c1ncc(C#CC2CC2)cc1Cl)C(C)NC(=O)c1cccnc1C(F)F` (stereo not drawn) [3-021], the pest or weed control at 500 µg/mL is no less than 70%.

Compound `COC(c1ncc(C#CC2CC2)cc1Cl)C(C)NC(=O)c1nccnc1C(F)(F)F` (stereo not drawn) [4-004] returned a pest or weed control at 500 µg/mL of no less than 70%.

The compound `Cn1cc(C(=O)NCCc2ncc(C#CC3CC3)cc2Cl)c(C(F)F)n1` [8-001] gave a pest or weed control at 500 µg/mL of no less than 70%.

Compound `Cn1cc(C(=O)NCCc2ncc(C#CC(C)(C)C)cc2Cl)c(C(F)F)n1` [8-002] came in with a pest or weed control at 500 µg/mL of no less than 70%.

`CC(CNC(=O)c1cn(C)nc1C(F)F)c1ncc(C#CC2CC2)cc1Cl` (stereo not drawn) [8-007]: the pest or weed control at 500 µg/mL was no less than 70%.

With `Cn1cc(C(=O)NCC(c2ncc(C#CC3CC3)cc2Cl)C2CC2)c(C(F)F)n1` (stereo not drawn) [8-009], the pest or weed control at 500 µg/mL was no less than 70%.

For `C=C(CNC(=O)c1cn(C)nc1C(F)F)c1ncc(C#CC2CC2)cc1Cl` [8-011, N-[2-[3-chloro-5-(cyclopropylethynyl)pyridin-2-yl]-2-propenyl]-3-difluoromethyl-1-methyl-1H-pyrazole-4-carboxamide], the pest or weed control at 500 µg/mL is no less than 70%.

In turn, `COC(=O)C(CNC(=O)c1cn(C)nc1C(F)F)c1ncc(C#CC2CC2)cc1Cl` (stereo not drawn) [8-022, 2-[3-chloro-5-(cyclopropylethynyl)pyridin-2-yl]-3-(3-difluoromethyl-1-methyl-1H-pyrazole-4-carboxamide)propionic acid methyl ester] displayed a pest or weed control at 500 µg/mL of no less than 70%.

Turning to `CC(Cc1ncc(C#CC2CC2)cc1Cl)NC(=O)c1cn(C)nc1C(F)F` (stereo not drawn) [8-024, N-[2-[3-chloro-5-(cyclopropylethynyl)pyridin-2-yl]-1-methylethyl]-3-difluoromethyl-1-methyl-1H-pyrazole-4-carboxamide], the pest or weed control at 500 µg/mL was no less than 70%.

Regarding `CC(Cc1ncc(C#Cc2ccccc2)cc1Cl)NC(=O)c1cn(C)nc1C(F)F` (stereo not drawn) [8-027], the pest or weed control at 500 µg/mL was no less than 70%.

The record behind these values is patent US10029986B2, “Alkynyl pyridine-substituted amide compound and pesticide” (NISSAN CHEMICAL INDUSTRIES, LTD., priority 2014, dated 2018).
